Test results: patent publication US20250042974A1, “LIPID MEDIATOR CHAPERONE AND USES THEREOF” (The Children's Medical Center Corporation, priority 2021, published 2025)

Tests used:
HUVEC = assay: TEER analysis of endothelial barrier function; type: cell-based, human; conditions: Iloprost 200 nM; HDL-S1P 100 nM S1P; AUY954 1 μM
Description: Transendothelial Electrical Resistance (TEER) was performed on HUVEC as described previously (Swendeman et al, 2017). Essentially, HUVECs were maintained in HUVEC Growth Medium (HGM; M199 medium supplemented with 10% FCS (Corning), 1:100 Pen-Strep (Sigma), 8 mM Glutamine (Sigma), Heparin (Sigma, 100 U, LMW) and Sheep Brain Extract prepared (REF). All cultures were maintained on Fibrobronectin (2 μg/ml) coated plates. For TEER analysis a 96 well ECIS system (96W10idf PET array, Applied BioPhysics) was employed. Wells were coated with Fibronectin (2 μg/ml) resuspended in saline for 30 minutes at room temp. HUVECs were harvested, resuspended in HGM at a cell density of 25-30×10^3 cells/well and allowed to adhere overnight. Prior to analysis, culture media was removed and replaced with M199 media supplemented with Pen-Strep/Glutamine and 1% FCS for 30 minutes. For stimulation studies, either Iloprost (Cayman Biochemicals) or Iloprost loaded onto ApoA1 or ApoA1-ApoM chaperones, or S1P prepared on ApoA1-ApoM or ApoM-Fc chaperones were added to cultures and TEER studies were performed from 3-24 hours.

NF-κB = assay: TNFα-induced NF-κB luciferase reporter assay in HMEC; type: cell-based, human
Description: TNFα-dependent NF-κB signaling was determined by using an NFκB-Luciferase based reporter assay system (pGL4.32[luc2P/NF-κB-RE/Hygro]; Promega). A stable NFκB reporter cell line in human microvascular endothelial cells (HMEC-1; ATCC) was created. HMEC were maintained in 10% FCS/Pen-Strep MCDB media supplemented with 2 mM L-Glutamine (Sigma), EGF (2 ng/ml; R&D systems) and Hydrocortisone (1 ng/ml; Sigma). […] The 5×10^5 reporter cells were distributed to 12 well plates and allowed to adhere for 24 hours. Media was replaced with MCDB media supplemented with 1% FCS, L-Glutamine. […] Samples were extracted using cell lysis buffers (Promega), luciferin substrate was added and the plates were measured for […] at 470 nm for 8-15 minutes in a SpectraMax L 96-well plate reader (Molecular Devices).

human platelets = assay: Human platelet aggregation in vitro (light transmission aggregometry); type: cell-based; conditions: SFLLRN peptide-induced, 2-20 nM drug, N=2, read-out: EC50 of inhibition of platelet aggregation
Description: Whole blood samples were drawn from healthy donors in the presence of 10% sodium citrate (Sigma, 5577-50 ml) and were spun at 1000 rpm using Beckman centrifuge (GS-6K) for 20 min. The top Platelet-rich Plasma (PRP) layer was collected resting at a 37° C. water bath for 30 minutes. PRP was diluted with the one-fifth volume of the acid-citrate-dextrose buffer, Prostaglandin E1 (PGE1) was added to a final concentration of 0.15 μM. The mixture was spun in a conical-bottom tube at 2000 g for 10 min, and the platelet pellet was collected and suspended in pre-warmed HEPES-Tyrode-Glucose Buffer (HTG). The platelet concentration was determined and adjusted to ˜2.5×10^5/μL with HTG on a Hematology cell counter System (Drew Scientific, 850FS).
Light Transmission Aggregometry was used to evaluate the platelet response to agonists and antagonists. In a 4-channel aggregometer (Platelet ionized calcium aggregometer, Chronolog Corp Model 660), human platelets were stirred in a cuvette at 37° C. […] Data were analyzed using AGGRO/LINK software package Ver 5.2.5 and Microsoft office professional plus 2013.

Which “endothelial barrier function in combination with Iloprost” value (HUVEC) does the source give for `O=C(O)CCNCc1ccc2sc(-c3ccc(-c4ccccc4)c(C(F)(F)F)c3)cc2c1` [AUY954, reference compound] here?
The value was “additive manner”.

“ApoA1: Purified Human ApoA1 (Sigma) [reference compound]” was tested. Which “inhibition of TNFα-induced NF-κB activity at higher doses” value (NF-κB; 100-400 μg/ml, bi-phasic dose-response) did it give?
The value was “not as inhibitory”.

What about the “inhibition of TNFα-induced NF-κB activity” value (NF-κB; low doses 25-50 μg/ml) of the same compound?
Its value is ~25%.

For `CC#CCC(C)[C@H](O)/C=C/[C@@H]1[C@H]2C/C(=C/CCCC(=O)O)C[C@H]2C[C@H]1O` (stereo partly shown) [Iloprost], which EC50 (human platelets) is on record?
The EC50 was ~11 nM.
